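Growth conditions: 96-well plates. Treatment: test compound, 48 hours, 5 concentrations. Analysis: linear interpolation between bracketing concentrations; unreached endpoints set to highest concentration. At the GI50, growth is halved. At the TGI there is no net growth.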
How the values were obtained:
Assay in all cases: NCI anticancer screen, dose series, 48 h
SF-295 CNS = system: SF-295 CNS
OVCAR-3 ovarian = system: OVCAR-3 ovarian
HCT-116 colon = system: HCT-116 colon
SNB-19 CNS = system: SNB-19 CNS
UO-31 renal = system: UO-31 renal
IGROV1 ovarian = system: IGROV1 ovarian
PC-3 prostate = system: PC-3 prostate
U251 CNS = system: U251 CNS
HOP-62 NSCLC = system: HOP-62 NSCLC
EKVX NSCLC = system: EKVX NSCLC

Row | Structure (SMILES) | TGI (SF-295 CNS) [µM] | TGI (OVCAR-3 ovarian) [µM] | TGI (HCT-116 colon) [µM] | TGI (SNB-19 CNS) [µM] | TGI (UO-31 renal) [µM] | TGI (IGROV1 ovarian) [µM] | TGI (PC-3 prostate) [µM] | TGI (U251 CNS) [µM] | TGI (HOP-62 NSCLC) [µM] | TGI (EKVX NSCLC) [µM] | GI50 (SF-295 CNS) [µM] | GI50 (OVCAR-3 ovarian) [µM] | GI50 (HCT-116 colon) [µM] | GI50 (SNB-19 CNS) [µM] | GI50 (UO-31 renal) [µM] | GI50 (IGROV1 ovarian) [µM] | GI50 (PC-3 prostate) [µM] | GI50 (U251 CNS) [µM] | GI50 (HOP-62 NSCLC) [µM] | GI50 (EKVX NSCLC) [µM]
1 | C[C@]1(CO)[C@H]2CC[C@@]34C=C[C@@](CO)(CC[C@H]3[C@]2(C)CC[C@H]1O)C4 | > 100 | > 100 | > 100 | > 100 | > 100 | > 100 | > 100 | > 100 | > 100 | > 100 | – | – | – | – | – | – | – | – | – | –
2 | COc1ccc(/C=C/c2nc(NCCCN(C)C)c3ccccc3n2)cc1 | 11 | 11.4 | 5.88 | 9.67 | 29.4 | 10.6 | 15.2 | 3.37 | 9.74 | 21.1 | 5.15 | 4.88 | 2.3 | 4.31 | 14.1 | 3.39 | 3.35 | 1.79 | 5.16 | 5.17
3 | CCCCNN | > 100 | > 100 | > 100 | > 100 | > 100 | > 100 | > 100 | > 100 | > 100 | > 100 | – | – | – | – | – | – | – | – | – | –
4 | O=C(Nc1ccc(Cl)cc1)c1ccc(NC2=C(Cl)C(=O)N(Cc3ccccc3)C2=O)cc1 | 19.9 | 28 | 7.59 | 76.6 | 29.8 | 6.22 | 27.1 | 20.4 | 27.7 | 89.5 | 5.8 | 12.6 | 2.41 | 23.2 | 14.7 | 0.98 | 11.4 | 8.07 | 14.1 | 26.7
5 | O=S(=O)(NCC1CCC(CNc2ccc(Cl)cc2)CC1)c1ccc(-c2ccccc2)cc1 (stereo not drawn) | > 50 | > 50 | > 50 | > 50 | > 50 | > 50 | > 50 | > 50 | > 50 | > 50 | > 50 | 10.7 | 32.2 | > 50 | > 50 | > 50 | 40.9 | 23.5 | > 50 | 25.7
6 | CCCCCCCCCCN(CCCCCCCCCC)CC(=O)c1ccc2cc(Br)c3ccccc3c2c1 | 3.53 | 3.54 | 3.17 | 5.75 | 7.2 | 3.6 | 8.95 | 3.55 | 3.4 | 19.8 | 1.75 | 1.98 | 1.67 | 2.04 | 1.86 | 1.84 | 2.67 | 1.91 | 1.63 | 5.31
7 | CC[C@@]1(O)C(=O)NCc2c1cc1n(c2=O)Cc2cc3c(N)cccc3nc2-1 | > 46.8 | 40 | 44.2 | > 50.7 | 7.12 | > 100 | > 55.4 | > 46.8 | – | > 51.7 | 1.01 | 11 | 1.22 | 2.93 | 0.866 | 10.1 | 9.99 | 2 | 0.973 | 16.5
8 | COc1cc2c3c(n(CCCNCCN)c(=O)c2cc1OC)-c1cc2c(cc1C3=O)OCO2 | 20.3 | 1.21 | 0.986 | > 100 | > 32.9 | – | 14.9 | 0.533 | 1.73 | 17.2 | 1.24 | 0.363 | 0.359 | 40.8 | 5.26 | 0.839 | 2.13 | 0.0484 | 0.189 | 4.58
9 | Clc1ccc2[nH]cc(-c3nc(-c4c[nH]c5ncccc45)cs3)c2c1 | 7.66 | 34.1 | 13.7 | 43.9 | 28.2 | 28.6 | 28 | 13.2 | 27.3 | 22.3 | 2.74 | 6.69 | 3.23 | 5.97 | 1.36 | 3.04 | 3.5 | 3.17 | 5.2 | 2.16
10 | COc1ccccc1NC(=O)n1nc(N)c2ccccc21 | > 100 | > 100 | > 100 | > 100 | > 100 | > 100 | > 100 | > 100 | > 100 | > 100 | 52.1 | > 100 | > 71.7 | > 100 | > 63.3 | 14.7 | 64.1 | 74.1 | > 69.3 | 55.9
11 | CC1=C[C@H]2c3c(c(O)c(O)c4oc5ccccc5c(=O)c34)[C@H](c3cc(O)c(O)c4oc5ccccc5c(=O)c34)[C@H]2C(C)(C)C1 | 2.28 | 10.5 | 1.75 | 14.1 | 2.18 | 8.09 | 16.5 | 14 | 8.35 | 12.8 | 0.443 | 0.426 | 0.224 | 1.17 | 0.73 | 1.05 | 1.1 | 0.728 | 0.978 | 1.44
12 | O=[N+]([O-])c1ccc(N/N=C/c2c(O)ccc3ccccc23)nc1 | > 100 | > 100 | > 100 | > 100 | > 100 | > 100 | > 100 | > 100 | > 100 | > 100 | 4.9 | 0.517 | 3.16 | > 100 | 1.25 | 7.48 | 48.7 | 5.01 | 6.82 | 6.5
13 | CN(C)N1C(=O)c2ccccc2NC1c1ccccc1 (stereo not drawn) | > 100 | > 100 | > 100 | > 100 | > 100 | > 100 | > 100 | > 100 | > 100 | > 100 | – | – | – | – | – | – | – | – | – | –
14 | CCOc1cc2c(NCCCN(CCO)CCO)ncnc2c(OCC)c1OCC | > 100 | > 100 | > 100 | > 100 | > 100 | > 100 | > 100 | > 100 | > 100 | > 100 | – | – | – | – | – | – | – | – | – | –
15 | O=C(NCCCNc1cc(-c2cn(-c3ccccc3)nc2-c2cccc(O)c2)ccn1)c1ccccc1 | 4.81 | 21 | 17 | > 100 | 23.6 | 59.6 | 15.2 | 21 | 14.1 | > 100 | 1.76 | 3.73 | 3.58 | 7.75 | 2.36 | 4.2 | 2.1 | 4.12 | 3.79 | 3.16
16 | O=C1C=C(Br)C(=O)C12CCc1ccccc12 (stereo not drawn) | 36.6 | 41.8 | 28.7 | 66.6 | 33 | 39.3 | 32.5 | 41.8 | 69 | 62 | – | – | – | – | – | – | – | – | – | –
